According to patent US10105357B2, “Indication of antibiotic drugs for preparation of cancer inhibition pharmaceutical composition” (LAUNX BIOMEDICAL CO., LTD., priority 2014, dated 2018):
Where a name gives a salt, the structure may show the parent alone. Read-outs that look alike come from different tables or passages of the source.

What was measured:
Format in all cases: cell-based, human
[1] = test system: HI650 (Lung Adenocarcinoma); assay: Cell viability analysis, lung cancer HI650; details: Homo sapiens
[2] = test system: A549 (Lung Adenocarcinoma); assay: Cell viability analysis, lung cancer A549; details: Homo sapiens
[3] = test system: AGS (Gastric Adenocarcinoma); assay: Cell viability analysis, gastric cancer AGS; details: Homo sapiens
[4] = test system: MKN-45 (Gastric Adenocarcinoma); assay: Cell viability analysis, gastric cancer MKN-45; details: Homo sapiens
[5] = test system: HepG2 (Hepatocellular Carcinoma); assay: Cell viability analysis, hepatic cancer HepG2; details: Homo sapiens
[6] = test system: LoVo (Colorectal Adenocarcinoma); assay: Cell viability analysis, colon cancer LoVo; details: Homo sapiens, LoVo
[7] = test system: A375 (Amelanotic Melanoma); assay: Cell viability analysis, skin cancer A375; details: Homo sapiens
[8] = test system: HeLa (Cervix Adenocarcinoma); assay: Cell viability analysis, cervical cancer HeLa; details: Homo sapiens, HeLa
[9] = test system: PC3 (p53−) (Prostate Adenocarcinoma); assay: Cell viability analysis, prostate cancer PC3; details: Homo sapiens, 72 h
[10] = test system: TSGH-8301 (Urinary Bladder Carcinoma); assay: Cell viability analysis, bladder cancer TSGH-8301; details: Homo sapiens
[11] = test system: MCF7 (Mammary Gland, Adenocarcinoma); assay: Cell viability analysis, breast cancer MCF7; details: Homo sapiens
[12] = test system: HL-60 (Acute Promyelocytic Leukemia); assay: Cell viability analysis, leukemia HL-60; details: Homo sapiens
[13] = NCI-H1650, 72 h, drug 10 μM, 72 hours, WST-1, OD450 nm, read-out: cell viability (survival rate), H1650
[14] = A549, 72 h, drug 10 μM, 72 hours, WST-1, OD450 nm, read-out: cell viability (survival rate), A549
[15] = 72 h, drug 10 μM, 72 hours, WST-1, OD450 nm, read-out: cell viability (survival rate), AGS
[16] = MKN-45, 72 h, drug 10 μM, 72 hours, WST-1, OD450 nm, read-out: cell viability (survival rate), MKN-45
[17] = HepG2, 72 h, drug 10 μM, 72 hours, WST-1, OD450 nm, read-out: cell viability (survival rate), HepG2
[18] = 72 h, read-out: cell viability (survival rate), LoVo, drug 10 μM, 72 hours, WST-1, OD450 nm
[19] = A-375, 72 h, drug 10 μM, 72 hours, WST-1, OD450 nm, read-out: cell viability (survival rate), A375
[20] = 72 h, drug 10 μM, 72 hours, WST-1, OD450 nm, read-out: cell viability (survival rate), HeLa
[21] = drug 10 μM, 72 hours, WST-1, OD450 nm, read-out: cell viability (survival rate), PC3
[22] = 72 h, drug 10 μM, 72 hours, WST-1, OD450 nm, read-out: cell viability (survival rate), TSGH
[23] = MCF7, 72 h, drug 10 μM, 72 hours, WST-1, OD450 nm, read-out: cell viability (survival rate), MCF7
[24] = HL-60, 72 h, drug 10 μM, 72 hours, WST-1, OD450 nm, read-out: cell viability (survival rate), HL-60
[25] = NCI-H1650, 72 h, read-out: cell viability (survival rate), H1650, drug 10 μM, 72 hours, WST-1, OD450 nm
[26] = A549, 72 h, read-out: cell viability (survival rate), A549, drug 10 μM, 72 hours, WST-1, OD450 nm
[27] = 72 h, read-out: cell viability (survival rate), AGS, drug 10 μM, 72 hours, WST-1, OD450 nm
[28] = MKN-45, 72 h, read-out: cell viability (survival rate), MKN-45, drug 10 μM, 72 hours, WST-1, OD450 nm
[29] = HepG2, 72 h, read-out: cell viability (survival rate), HepG2, drug 10 μM, 72 hours, WST-1, OD450 nm
[30] = A-375, 72 h, read-out: cell viability (survival rate), A375, drug 10 μM, 72 hours, WST-1, OD450 nm
[31] = 72 h, read-out: cell viability (survival rate), HeLa, drug 10 μM, 72 hours, WST-1, OD450 nm
[32] = read-out: cell viability (survival rate), PC3, drug 10 μM, 72 hours, WST-1, OD450 nm
[33] = 72 h, read-out: cell viability (survival rate), TSGH, drug 10 μM, 72 hours, WST-1, OD450 nm
[34] = MCF7, 72 h, read-out: cell viability (survival rate), MCF7, drug 10 μM, 72 hours, WST-1, OD450 nm
[35] = HL-60, 72 h, read-out: cell viability (survival rate), HL-60, drug 10 μM, 72 hours, WST-1, OD450 nm

Compound | viability at 10 µM [1, 13] [%] | viability at 10 µM [2, 14] [%] | viability at 10 µM [3, 15] [%] | viability at 10 µM [4, 16] [%] | viability at 10 µM [5, 17] [%] | viability at 10 µM [6, 18] [%] | viability at 10 µM [7, 19] [%] | viability at 10 µM [8, 20] [%] | viability at 10 µM [9, 21] [%] | viability at 10 µM [1, 25] [%] | viability at 10 µM [2, 26] [%] | viability at 10 µM [3, 27] [%] | viability at 10 µM [4, 28] [%] | viability at 10 µM [5, 29] [%] | viability at 10 µM [7, 30] [%] | viability at 10 µM [8, 31] [%] | viability at 10 µM [9, 32] [%] | viability at 10 µM [10, 33] [%] | viability at 10 µM [11, 34] [%] | viability at 10 µM [12, 35] [%] | also measured
NC(=O)c1cnccn1 [Pyrazinamide] | 79.1 | 33.9 | 74.9 | 53.6 | 88.1 | 56.9 | 58.6 | 54.3 | 100 | – | – | – | – | – | – | – | – | – | – | – | viability at 10 µM [10, 22]: 88.3%; viability at 10 µM [11, 23]: 40.9%; viability at 10 µM [12, 24]: 106%
CN(CCOc1ccc(CC2SC(=O)NC2=O)cc1)c1ccccn1 (stereo not drawn) [Rosiglitazone maleate] | 87.7 | 79.1 | 113 | 73.7 | 95.1 | 93.5 | 70.3 | 83.3 | 121 | – | – | – | – | – | – | – | – | – | – | – | viability at 10 µM [10, 22]: 85.2%; viability at 10 µM [11, 23]: 114%; viability at 10 µM [12, 24]: 109%
CC[C@H]1OC(=O)[C@H](C)[C@@H](O[C@H]2C[C@@](C)(OC)[C@@H](O)[C@H](C)O2)[C@H](C)[C@@H](O[C@@H]2O[C@H](C)C[C@H](N(C)C)[C@H]2O)[C@](C)(O)C[C@@H](C)[C@@H]2N[C@@H](COCCOC)O[C@H]([C@H]2C)[C@]1(C)O [Dirithromycin] | – | – | – | – | – | 83.7 | – | – | – | 65.5 | 64.8 | 63.2 | 106 | 90.6 | 83.7 | 91.9 | 77.1 | 77.2 | 62.6 | 90.2 | –
Cc1ccccc1C(OCCN(C)C)c1ccccc1 (stereo not drawn) [Orphenadrine citrate (Norflex), Orphenadrine citrate] | – | – | – | – | – | 45.6 | – | – | – | 99.6 | 21.8 | 82.9 | 102 | 97.8 | 89.2 | 67.9 | 41.6 | 53.4 | 35.9 | 92.9 | –
CCC[C@@H]1C[C@@H](C(=O)N[C@@H]([C@H]2O[C@H](SC)[C@H](OP(=O)(O)O)[C@@H](O)[C@H]2O)[C@H](C)Cl)N(C)C1 [Clindamycin phosphate] | – | – | – | – | – | 44.4 | – | – | – | 87 | 31 | 91.6 | 85.6 | 90.2 | 81.3 | 61.4 | 40 | 79.6 | 38.3 | 110 | –
C[C@H]1COc2c(N3CCN(C)CC3)c(F)cc3c(=O)c(C(=O)O)cn1c23 [Levofloxacin (Levaquin), Levofloxacin] | – | – | – | – | – | 62.6 | – | – | – | 64.9 | 36.7 | 51.6 | 44.5 | 88.4 | 39.3 | 50.8 | 29.6 | 41.8 | 43.9 | 93 | –
CN(C/C=C/C#CC(C)(C)C)Cc1cccc2ccccc12 [Terbinafine (Lamisil, Terbinex), Terbinafine] | 104 | 115 | 137 | 143 | 98.3 | 94 | 99.7 | 65.2 | 140 | – | – | – | – | – | – | – | – | – | – | – | viability at 10 µM [10, 22]: 109%; viability at 10 µM [11, 23]: 104%; viability at 10 µM [12, 24]: 95.2%
Clc1ccc(CSC(Cn2ccnc2)c2ccc(Cl)cc2Cl)cc1 (stereo not drawn) [Sulconazole Nitrate] | – | – | – | – | – | 73.6 | – | – | – | 63.4 | 50.7 | 83.1 | 53.2 | 88.2 | 44.9 | 62.1 | 65.7 | 55 | 44.4 | 64.1 | –
Nc1nccs1 [Aminothiazole] | – | – | – | – | – | 86.4 | – | – | – | 68.7 | 56.1 | 62.3 | – | 90.4 | 78.4 | 65.7 | 93.8 | 86 | 108 | 121 | –
Fc1ccc([C@@H]2CCNC[C@H]2COc2ccc3c(c2)OCO3)cc1 [paroxetine] | – | – | – | – | – | – | – | – | – | – | – | – | – | – | – | – | – | – | – | – | viability at 10 µM ([10]; 72 h, read-out: The results of antibiotic drug inhibiting cancer cell lines (cell viability analysis), TSGH-8301, TSGH-8301, repeated experiment): 38.4%
CCCc1nc(C)c2c(=O)[nH]c(-c3cc(S(=O)(=O)N4CCN(CC)CC4)ccc3OCC)nn12 [Vardenafil (Vivanza), Vardenafil] | – | – | – | – | – | 106 | – | – | – | 67.2 | 96.5 | 86.5 | 68.2 | 81.8 | 73.2 | 61.7 | – | 57.8 | 117 | 127 | –
O=C([O-])[C@H](O)[C@@H](O)[C@H](O)[C@H](O)CO.[Na+] [Sodium Gluconate] | – | – | – | – | – | – | – | – | – | – | – | – | – | – | – | – | – | – | – | – | viability at 10 µM ([1]; NCI-H1650, drug 10 μM, 72 hours, WST-1, OD450 nm, read-out: cell viability (survival rate), H1650): 94.6%; viability at 10 µM ([2]; A549, drug 10 μM, 72 hours, WST-1, OD450 nm, read-out: cell viability (survival rate), A549): 91.9%; viability at 10 µM ([3]; drug 10 μM, 72 hours, WST-1, OD450 nm, read-out: cell viability (survival rate), AGS): 90.8%; viability at 10 µM ([4]; MKN-45, drug 10 μM, 72 hours, WST-1, OD450 nm, read-out: cell viability (survival rate), MKN-45): 93%; viability at 10 µM ([5]; HepG2, drug 10 μM, 72 hours, WST-1, OD450 nm, read-out: cell viability (survival rate), HepG2): 95.3%; viability at 10 µM ([6]; drug 10 μM, 72 hours, WST-1, OD450 nm, read-out: cell viability (survival rate), LoVo): 100%; viability at 10 µM ([7]; A-375, drug 10 μM, 72 hours, WST-1, OD450 nm, read-out: cell viability (survival rate), A375): 116%; viability at 10 µM ([8]; drug 10 μM, 72 hours, WST-1, OD450 nm, read-out: cell viability (survival rate), HeLa): 73%; viability at 10 µM ([10]; drug 10 μM, 72 hours, WST-1, OD450 nm, read-out: cell viability (survival rate), TSGH): 97.4%; viability at 10 µM ([11]; MCF7, drug 10 μM, 72 hours, WST-1, OD450 nm, read-out: cell viability (survival rate), MCF7): 94.7%; viability at 10 µM ([12]; HL-60, drug 10 μM, 72 hours, WST-1, OD450 nm, read-out: cell viability (survival rate), HL-60): 91.2%
Cc1cc(=O)[nH]c(=S)[nH]1 [Methylthiouracil] | 90.2 | 164 | 84.8 | 79.9 | 106 | 98.9 | 72.1 | 88.3 | 151 | – | – | – | – | – | – | – | – | – | – | – | viability at 10 µM [10, 22]: 83.6%; viability at 10 µM [12, 24]: 106%
